US20250275964A1, “METHODS OF INHIBITING LIVER-TYPE GLUTAMINASE, GLS2” (CORNELL UNIVERSITY, priority 2019, published 2025)

Assays:
[1] = system: glutaminase activity in mitochondria isolated from breast cancer cell lines; test: Mitochondrial glutaminase activity assay; format: biochemical, human
Text: Breast cancer cells were fractionated into cytosolic, mitochondrial, and nuclear components via partial lysis and centrifugation using the Qproteome Mitochondria Isolation Kit (Qiagen). For all samples, a portion of the starting material (i.e. whole cells) was retained for comparison with the isolated fractions. When cellular fractions were to be analyzed only by western blot, a single 10 cm dish of exponentially growing cells was used. When mitochondria were isolated for glutaminase assays, two 15 cm dishes of exponentially growing cells were used.
A two-reaction protocol was used to measure mitochondrial glutaminase activity. […] The reaction was then quenched by addition of 10 μl of 2.4 M HCl, and samples placed on ice. Next, 20 μl of quenched Reaction Mix 1 was added to 200 μl of Reaction Mix 2 (1 unit bovine liver glutamate dehydrogenase (Sigma-Aldrich), 80 mM Tri-HCl pH 9.4, 200 mM hydrazine, 0.25 mM ADP, 2 mM NAD) and samples were incubated for 1 hour at room temperature. The absorbance at 340 nm was then measured against a matched sample in which heat-inactivated mitochondria (immersed in boiling water for 5 minutes) were used. A standard curve was prepared using given concentrations of glutamate in Reaction Mix 2, allowing the amount of glutamate produced in Reaction 1 to be determined.

breast cancer cell lines = test: 6-day cell proliferation assay, collection of breast cancer cell lines; format: cell-based, human
Procedure: Human breast cancer cell lines MCF7, BT-474, T-47D, MDA-MB-453, MDA-MB-231, Hs 578T, HCC38, SK-BR-3, and DU4475 were purchased from the American Type Culture Collection (ATCC) and no additional cell authentication was performed. The TSE human breast cancer cell line was supplied by Dr. Steven Abcouwer (University of Michigan). All breast cancer cells were cultured at 37° C. under a 5% CO2 atmosphere in RPMI 1640 medium containing 2 mM glutamine (Gibco) and supplemented with 10% fetal bovine serum (FBS) (Gibco). The 293T cell line (ATCC) used for generating lentivirus particles was cultured as above but using DMEM, high glucose (Gibco).
Culture medium was added to 12-well plates (1 ml/well) and wells were seeded with cells at Day 0 as follows. MCF7, T-47D, BT-474, HCC38 cells: […] cells/well. MDA-MB-453 and MDA-MB-231 cells: 1×10^4 cells/well. TSE and Hs 578T cells: 0.3×10^4 cells/well. After 16 hours, culture medium was replaced with fresh medium supplemented with appropriate concentrations of inhibitors and was subsequently replaced every 48 hours. On Day 6 cells were trypsinized and suspended in an appropriate volume of culture medium, and the total number of cells per well was determined using a hemocytometer or a TC20 Automated Cell Counter (Bio-Rad).

[2] = system: primary human mammary epithelial cells or fibroblasts; settings: Wang et al. 2010; cited from earlier work

SMILES	inhibition of mitochondrial glutaminase activity ([1]; mitochondria from MDA-MB-453 cells)	inhibition of mitochondrial glutaminase activity ([1]; mitochondria from basal-subtype cells, 10 μM)	inhibition of mitochondrial glutaminase activity ([1]; mitochondria from luminal-subtype breast cancer cells)	EC50 (breast cancer cell lines; breast cancer cells, 6 days)	maximal inhibition (breast cancer cell lines; cells with highest expression of GLS)	growth of primary human mammary epithelial cells or fibroblasts [2]
O=C(Cc1ccccc1)Nc1nnc(CCSCCc2nnc(NC(=O)Cc3ccccc3)s2)s1 [BPTES]	no effect on activity	almost completely abolished	only partially inhibited	–	–	–
CN(C)c1ccc(C2Nc3ccc4ccccc4c3C3=C2C(=O)CC(C)(C)C3)cc1Br (stereo not drawn) [Compound 968]	–	–	–	3 to 5 µM	70-75%	does not affect the growth
